# Laboratory results published in patent US11851426B2, “Bicyclic amines as CDK2 inhibitors” (Incyte Corporation, priority 2019, dated 2023).
# Biological target: CDK2/Cyclin E1 (Homo sapiens (Human), UniProt P24941)
# Assay: CDK2/Cyclin E1 HTRF enzyme activity assay
# Type: biochemical
# Conditions: 1 mM ATP; CDK2/Cyclin E1 0.25 nM; 60 minutes at room temperature
# Method in brief: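 Full-length GST-CDK2 co-expressed with FLAG-Cyclin E1 (baculovirus), 0.25 nM, reacted with 50 nM ULight-4E-BP1 (Thr37/46) peptide at 50 μM or 1 mM ATP in HEPES pH 7.5 buffer, 60 min, room temperature. EDTA plus Eu-anti-phospho-4E-BP1 antibody stopped the reaction; HTRF read after 1 h; IC50 from three- or four-parameter fits.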
row,Structure (SMILES),IC50
1,"C[C@H]1CCCCN1c1c(-c2cn[nH]c2)ncc2nc(NC3CCN(S(C)(=O)=O)CC3)nn12 [Example 132, (A)-5-(2-Methylpiperidin-1-yl)-N-(1-(methylsulfonyl)piperidin-4-yl)-6-(1H-pyrazol-4-yl)-[1,2,4]triazolo[1,5-a]pyrazin-2-amine]",≤ 0.02 µM
2,"C[C@H]1CCCN1c1c(-c2cn[nH]c2)ncc2nc(NC3CCN(S(C)(=O)=O)CC3)nn12 [Example 133, (S)-5-(2-Methylpyrrolidin-1-yl)-N-(1-(methylsulfonyl)piperidin-4-yl)-6-(1H-pyrazol-4-yl)-[1,2,4]triazolo[1,5-a]pyrazin-2-amine]",≤ 0.02 µM
3,"CS(=O)(=O)N1CCC(Nc2nc3cnc(-c4cn[nH]c4)c(N4C5CCC4CC5)n3n2)CC1 [Example 135, 5-(7-Azabicyclo[2.2.1]heptan-7-yl)-N-(1-(methylsulfonyl)piperidin-4-yl)-6-(1H-pyrazol-4-yl)-[1,2,4]triazolo[1,5-a]pyrazin-2-amine]",≤ 0.02 µM
4,"[2H]C([2H])([2H])C(Oc1c(-c2cn[nH]c2)ncc2nc(N[C@H]3CCN(S(C)(=O)=O)C[C@H]3C)nn12)C([2H])([2H])[2H] [Example 138, N-((3R,4S)-3-Methyl-1-(methylsulfonyl)piperidin-4-yl)-5-((propan-2-yl-1,1,1,3,3,3-d6)oxy)-6-(1H-pyrazol-4-yl)-[1,2,4]triazolo[1,5-a]pyrazin-2-amine]",≤ 0.02 µM
5,"C[C@@H]1CN(S(C)(=O)=O)CC[C@@H]1Nc1nc2cnc(-c3cn[nH]c3)c(OC3CCCC3)n2n1 [Example 140, 5-(Cyclopentyloxy)-N-((3R,4S)-3-methyl-1-(methylsulfonyl)piperidin-4-yl)-6-(1H-pyrazol-4-yl)-[1,2,4]triazolo[1,5-a]pyrazin-2-amine]",≤ 0.02 µM
6,"[2H]C(C)(C)Oc1c(-c2cn[nH]c2)ncc2nc(NC3CCN(S(C)(=O)=O)CC3)nn12 [Example 142, N-(1-(Methylsulfonyl)piperidin-4-yl)-5-((propan-2-yl-2-d)oxy)-6-(1H-pyrazol-4-yl)-[1,2,4]triazolo[1,5-a]pyrazin-2-amine]",≤ 0.02 µM

# The next lines start with the values.
row,IC50,Structure (SMILES)
1,≤ 0.02 µM,"CS(=O)(=O)N1CCC(Nc2nc3cnc(-c4cn[nH]c4)c(N4CC5CCC4C5)n3n2)CC1 (stereo not drawn) [Example 131, 5-(2-Azabicyclo[2.2.1]heptan-2-yl)-N-(1-(methylsulfonyl)piperidin-4-yl)-6-(1H-pyrazol-4-yl)-[1,2,4]triazolo[1,5-a]pyrazin-2-amine]"
2,≤ 0.02 µM,"CS(=O)(=O)N1CCC(Nc2nc3cnc(-c4cn[nH]c4)c(N4CC[C@H](C(F)F)C4)n3n2)CC1 [Example 134, (S)-5-(3-(Difluoromethyl)pyrrolidin-1-yl)-N-(1-(methylsulfonyl)piperidin-4-yl)-6-(1H-pyrazol-4-yl)-[1,2,4]triazolo[1,5-a]pyrazin-2-amine]"
3,≤ 0.02 µM,"CS(=O)(=O)N1CCC(Nc2nc3cnc(-c4cn[nH]c4)c(N4CCCC(C(F)(F)F)C4)n3n2)CC1 (stereo not drawn) [Example 136, N-(1-(Methylsulfonyl)piperidin-4-yl)-6-(1H-pyrazol-4-yl)-5-(3-(trifluoromethyl)piperidin-1-yl)-[1,2,4]triazolo[1,5-a]pyrazin-2-amine]"
4,≤ 0.02 µM,"[2H]C(C)(C)Oc1c(-c2cn[nH]c2)ncc2nc(N[C@H]3CCN(S(C)(=O)=O)C[C@H]3C)nn12 [Example 137, N-((3R,4S)-3-Methyl-1-(methylsulfonyl)piperidin-4-yl)-5-((propan-2-yl-2-d)oxy)-6-(1H-pyrazol-4-yl)-[1,2,4]triazolo[1,5-a]pyrazin-2-amine]"
5,≤ 0.02 µM,"[2H]C([2H])([2H])C([2H])(Oc1c(-c2cn[nH]c2)ncc2nc(N[C@H]3CCN(S(C)(=O)=O)C[C@H]3C)nn12)C([2H])([2H])[2H] [Example 139, N-((3R,4S)-3-Methyl-1-(methylsulfonyl)piperidin-4-yl)-5-((propan-2-yl-d7)oxy)-6-(1H-pyrazol-4-yl)-[1,2,4]triazolo[1,5-a]pyrazin-2-amine]"
6,≤ 0.02 µM,"CC(C)Oc1c(-c2cn[nH]c2)ncc2nc(NC3CCN(S(C)(=O)=O)CC3)nn12 [Example 141, 5-Isopropoxy-N-(1-(methylsulfonyl)piperidin-4-yl)-6-(1H-pyrazol-4-yl)-[1,2,4]triazolo[1,5-a]pyrazin-2-amine]"
